In PubChem BioAssay (NCI) one finds GI50 and TGI data, which are given here for twelve molecules.

Test systems include DU-145 prostate; RPMI-8226 leukemia; UACC-62 melanoma; SNB-75 CNS; TK-10 renal; NCI/ADR-RES ovarian; SK-MEL-5 melanoma; A549 NSCLC; UO-31 renal; SF-539 CNS.
Holding throughout (assay): inhibition of tumour cell growth, NCI panel, 48 h

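How tested: cells in 96-well plates exposed to compound for 48 hours at five concentrations. Abbreviation: GI50, concentration required for 50% inhibition of growth. TGI denotes the concentration required for complete inhibition of growth.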

`COc1ccc(OC)c(-c2nc3sccn3c2/C=C2/C(=O)Nc3ccc(Cl)cc32)c1`: the GI50 is 41.3 µM in the assay on DU-145 prostate; 26.9 µM with RPMI-8226 leukemia; 11.8 µM in the assay with UACC-62 melanoma; 19.7 µM in the assay on SNB-75 CNS; 29.9 µM in the assay on TK-10 renal; 25.6 µM with NCI/ADR-RES ovarian. For the same molecule, the GI50 was 17.4 µM with SK-MEL-5 melanoma, 38.9 µM in the assay on A549 NSCLC, 23.6 µM with UO-31 renal and 24.3 µM in the assay with SF-539 CNS. Also, the TGI in the assay on DU-145 prostate is over 100 µM; with RPMI-8226 leukemia, 94.8 µM; in the assay with UACC-62 melanoma it was 26.6 µM; in the assay on SNB-75 CNS, 48.6 µM; with TK-10 renal it was over 100 µM; in the assay with NCI/ADR-RES ovarian, 89.8 µM. Besides, the TGI with SK-MEL-5 melanoma is 33.1 µM; in the assay on A549 NSCLC, over 100 µM; in the assay on UO-31 renal it was 81.8 µM; with SF-539 CNS it was 60.9 µM.

`O=C(c1ccccc1Nc1ccnc(C(F)(F)F)c1)N1CCN(c2cccc(Cl)c2)CC1`: the GI50 in the assay on DU-145 prostate is 28.1 µM; in the assay on RPMI-8226 leukemia, 6.3 µM; in the assay on UACC-62 melanoma, 10.6 µM; with SNB-75 CNS, 26 µM; in the assay on TK-10 renal it was 30.8 µM; in the assay with NCI/ADR-RES ovarian it was 16.2 µM. For the same molecule, the GI50 with SK-MEL-5 melanoma was 8.29 µM; in the assay with A549 NSCLC, 21.2 µM; in the assay with UO-31 renal, 13.7 µM; in the assay with SF-539 CNS, 17.8 µM. For the same molecule, the TGI is over 100 µM in the assay on DU-145 prostate; 48 µM in the assay with RPMI-8226 leukemia; 25.7 µM in the assay on UACC-62 melanoma; over 92.2 µM in the assay with SNB-75 CNS; over 100 µM in the assay on TK-10 renal; 59.5 µM in the assay on NCI/ADR-RES ovarian. Moreover, the TGI with SK-MEL-5 melanoma was 21.8 µM; with A549 NSCLC, over 100 µM; with UO-31 renal, 68.1 µM; in the assay on SF-539 CNS, 41.1 µM.

Regarding `O=c1[nH]cc(CS(=O)(=O)Cc2c[nH]c(=O)[nH]c2=O)c(=O)[nH]1`, the TGI in the assay on DU-145 prostate, in the assay on RPMI-8226 leukemia, with UACC-62 melanoma, in the assay on SNB-75 CNS, in the assay with TK-10 renal and in the assay with NCI/ADR-RES ovarian was over 100 µM throughout. Also, the TGI in the assay with SK-MEL-5 melanoma, in the assay with A549 NSCLC, in the assay on UO-31 renal and with SF-539 CNS was over 100 µM throughout.

For the molecule `Cc1ccc(Cl)cc1Nc1nc(C(F)(F)F)ccc1C(=O)Nc1cccc(C(F)(F)F)c1`, the GI50 was 4.76 µM with DU-145 prostate; 2.34 µM in the assay with RPMI-8226 leukemia; 5.22 µM with UACC-62 melanoma; 3.11 µM with SNB-75 CNS; 5.58 µM in the assay on TK-10 renal; 2.13 µM in the assay with NCI/ADR-RES ovarian. Further, the GI50 is 2.18 µM in the assay on SK-MEL-5 melanoma, 2.93 µM with A549 NSCLC, 2.84 µM in the assay on UO-31 renal and 3.95 µM with SF-539 CNS. In addition, the TGI was 16.6 µM with DU-145 prostate; 12.6 µM in the assay with RPMI-8226 leukemia; 17.1 µM in the assay on UACC-62 melanoma; 12.3 µM with SNB-75 CNS; 17.8 µM in the assay with TK-10 renal; 7.66 µM with NCI/ADR-RES ovarian. Moreover, the TGI in the assay on SK-MEL-5 melanoma was determined as 4.5 µM; in the assay with A549 NSCLC, 11.7 µM; with UO-31 renal, 12.7 µM; with SF-539 CNS, 14.1 µM.

With `O=C1NC(=O)/C(=C/C=C/c2ccccc2)S1`, the GI50 is 3.76 µM in the assay on DU-145 prostate; 3.67 µM with RPMI-8226 leukemia; 0.49 µM in the assay with UACC-62 melanoma; 5.25 µM with SNB-75 CNS; 28.6 µM in the assay on TK-10 renal; 2.87 µM in the assay with NCI/ADR-RES ovarian. The GI50 in the assay with SK-MEL-5 melanoma was 2.58 µM; in the assay on A549 NSCLC, 11.1 µM; in the assay with UO-31 renal, 2.81 µM; in the assay on SF-539 CNS, 0.384 µM. Besides, the TGI in the assay with DU-145 prostate was 36.6 µM; in the assay with RPMI-8226 leukemia, over 96.5 µM; with UACC-62 melanoma it was 27 µM; with SNB-75 CNS it was 40.3 µM; in the assay on TK-10 renal, over 100 µM; in the assay on NCI/ADR-RES ovarian, over 100 µM. Further, the TGI with SK-MEL-5 melanoma was 22.5 µM; with A549 NSCLC, over 100 µM; with UO-31 renal it was 30.4 µM; in the assay with SF-539 CNS, 3.16 µM.

As to `CC(=O)Oc1ccc(OC(C)=O)c2ccccc12`, the GI50 in the assay on DU-145 prostate is 15.9 µM; in the assay with RPMI-8226 leukemia it was 3.85 µM; in the assay on UACC-62 melanoma, 6.94 µM; in the assay on SNB-75 CNS it was 14 µM; in the assay with TK-10 renal, 17.2 µM; with NCI/ADR-RES ovarian, 3.27 µM. Moreover, the GI50 was 13.5 µM in the assay on SK-MEL-5 melanoma, 34.9 µM with A549 NSCLC, 2.14 µM in the assay with UO-31 renal and 13.2 µM with SF-539 CNS. Moreover, the TGI with DU-145 prostate came to 29.6 µM; in the assay with RPMI-8226 leukemia, 10.2 µM; with UACC-62 melanoma it was 19.9 µM; in the assay on SNB-75 CNS, 27.7 µM; in the assay on TK-10 renal, 31.5 µM; in the assay with NCI/ADR-RES ovarian it was 15.2 µM. For the same molecule, the TGI is 26.4 µM in the assay on SK-MEL-5 melanoma, over 100 µM in the assay on A549 NSCLC, 16.1 µM in the assay with UO-31 renal and 26.4 µM in the assay with SF-539 CNS.

Turning to `CCOC1OCCCC1Br` (stereo not given), the TGI with DU-145 prostate, with RPMI-8226 leukemia, in the assay on UACC-62 melanoma, in the assay on SNB-75 CNS, in the assay with TK-10 renal and in the assay with NCI/ADR-RES ovarian was over 100 µM each time. In addition, the TGI in the assay with SK-MEL-5 melanoma, with A549 NSCLC, in the assay with UO-31 renal and in the assay with SF-539 CNS was over 100 µM throughout.

As for `Cl.[Pt].[c-]1ccccc1-c1ccccn1.c1ccc(P(c2ccccc2)C([PH+](c2ccccc2)c2ccccc2)[PH+](c2ccccc2)c2ccccc2)cc1`, the GI50 was 1.9 µM in the assay on DU-145 prostate; 0.525 µM in the assay on RPMI-8226 leukemia; 1.7 µM in the assay on UACC-62 melanoma; 1.64 µM in the assay with SNB-75 CNS; 1.74 µM in the assay on TK-10 renal; 5.21 µM in the assay with NCI/ADR-RES ovarian. Further, the GI50 was 1.25 µM in the assay on SK-MEL-5 melanoma, 1.32 µM in the assay on A549 NSCLC, 1.8 µM with UO-31 renal and 1.54 µM with SF-539 CNS. Also, the TGI in the assay with DU-145 prostate came to 16.4 µM; in the assay on RPMI-8226 leukemia, 3.66 µM; in the assay with UACC-62 melanoma it was 4.75 µM; with SNB-75 CNS, 23.5 µM; with TK-10 renal, 15.5 µM; with NCI/ADR-RES ovarian, 76.5 µM. Further, the TGI with SK-MEL-5 melanoma amounted to 2.8 µM; in the assay on A549 NSCLC, 15.1 µM; with UO-31 renal, 6.28 µM; in the assay with SF-539 CNS, 5.6 µM.

With `C=C(C=O)C1CC(=O)C(C(=O)OC)[C@@H]2O[C@@](C)(CC2=O)C[C@@H]2OC(=O)[C@]3(O[C@@H]23)[C@@H](C(=O)OC)C1` (stereo not given in full), the GI50 is 28.9 µM in the assay on DU-145 prostate; 4.16 µM in the assay on RPMI-8226 leukemia; 18.1 µM in the assay on UACC-62 melanoma; 31 µM in the assay on SNB-75 CNS; 24.7 µM in the assay on TK-10 renal; 46.4 µM in the assay on NCI/ADR-RES ovarian. The GI50 was 17 µM with SK-MEL-5 melanoma, 29 µM with A549 NSCLC, 19 µM in the assay on UO-31 renal and 18 µM with SF-539 CNS. The TGI in the assay on DU-145 prostate was over 100 µM; with RPMI-8226 leukemia, 21.8 µM; in the assay on UACC-62 melanoma it was 44.8 µM; in the assay on SNB-75 CNS, over 100 µM; in the assay with TK-10 renal it was 42 µM; in the assay on NCI/ADR-RES ovarian it was over 100 µM. The TGI is 38.5 µM in the assay on SK-MEL-5 melanoma, 67.1 µM in the assay on A549 NSCLC, 48.9 µM in the assay with UO-31 renal and 61.2 µM in the assay on SF-539 CNS.

Consider `COc1ccc(-c2oc(=O)ccc2C#Cc2cc(OC)c(OC)c(OC)c2)cc1O`, for which the GI50 with DU-145 prostate is 38.6 µM; in the assay on RPMI-8226 leukemia, 10.9 µM; in the assay on UACC-62 melanoma, 13.5 µM; in the assay on SNB-75 CNS, 20.8 µM; in the assay with TK-10 renal, 83.9 µM; in the assay on NCI/ADR-RES ovarian, 24.4 µM. Moreover, the GI50 is 7.55 µM in the assay with SK-MEL-5 melanoma, 39.5 µM in the assay on A549 NSCLC, 30.9 µM in the assay with UO-31 renal and 20 µM with SF-539 CNS. The TGI in the assay with DU-145 prostate is over 100 µM; with RPMI-8226 leukemia it was 35.1 µM; in the assay on UACC-62 melanoma, 63.5 µM; in the assay on SNB-75 CNS, 69.9 µM; in the assay with TK-10 renal, over 100 µM; in the assay on NCI/ADR-RES ovarian, over 100 µM. Further, the TGI in the assay with SK-MEL-5 melanoma is 26.6 µM; with A549 NSCLC, over 100 µM; in the assay on UO-31 renal, over 100 µM; with SF-539 CNS, 86.2 µM.

For `COc1ccc(/C=C/c2c(C(=O)/C=C/c3ccc(Cl)cc3)c(C)nc3ccccc23)cc1`, the GI50 in the assay with DU-145 prostate was 1.69 µM; in the assay with RPMI-8226 leukemia, 1.91 µM; in the assay on UACC-62 melanoma it was 1.59 µM; in the assay on SNB-75 CNS it was 1.5 µM; in the assay on TK-10 renal, 2.87 µM; in the assay on NCI/ADR-RES ovarian, 2.11 µM. For the same molecule, the GI50 in the assay on SK-MEL-5 melanoma is 1.72 µM; with A549 NSCLC it was 2.69 µM; with UO-31 renal it was 1.21 µM; in the assay with SF-539 CNS, 1.78 µM. The TGI in the assay with DU-145 prostate was determined as 3.25 µM; in the assay on RPMI-8226 leukemia, 6.77 µM; with UACC-62 melanoma it was 3.28 µM; in the assay on SNB-75 CNS, 3.14 µM; with TK-10 renal it was 4.95 µM; in the assay with NCI/ADR-RES ovarian it was 5.61 µM. For the same molecule, the TGI in the assay on SK-MEL-5 melanoma worked out at 3.11 µM; in the assay with A549 NSCLC it was 9.6 µM; in the assay on UO-31 renal it was 2.47 µM; in the assay with SF-539 CNS, 3.27 µM.

Regarding `CC(CN=C(CC(=O)c1ccc(Br)cc1)c1ccccc1)N=C(CC(=O)c1ccc(Br)cc1)c1ccccc1` (stereo not given), the GI50 was 64.4 µM in the assay on DU-145 prostate; 4.37 µM in the assay on RPMI-8226 leukemia; 32 µM with UACC-62 melanoma; over 100 µM with SNB-75 CNS; 7.56 µM in the assay on TK-10 renal; 14.2 µM with NCI/ADR-RES ovarian. In addition, the GI50 in the assay with SK-MEL-5 melanoma was 2.18 µM; with A549 NSCLC it was 7.6 µM; in the assay on UO-31 renal, 1.66 µM; in the assay with SF-539 CNS it was over 100 µM. Besides, the TGI was over 100 µM in the assay on DU-145 prostate; 38.6 µM in the assay on RPMI-8226 leukemia; over 100 µM in the assay with UACC-62 melanoma; over 100 µM in the assay on SNB-75 CNS; over 100 µM in the assay on TK-10 renal; over 100 µM in the assay on NCI/ADR-RES ovarian. Further, the TGI was 8.9 µM in the assay with SK-MEL-5 melanoma, over 100 µM with A549 NSCLC, over 100 µM in the assay on UO-31 renal and over 100 µM in the assay with SF-539 CNS.
